We go through one molecule from paper PMC9302676 (Chemsuschem, 2022).

In experiment [1] the target is P450 BM3 (CYP102A1) (Priestia megaterium, UniProt P14779). In words: biochemical.
The target in experiment [2] is P450 BM3 (CYP102A1) (Priestia megaterium, UniProt P14779, N320L/T412V/T437A). In words: biochemical.
P450 BM3 (CYP102A1) (Priestia megaterium, UniProt P14779, N320L/T412V/T437A), sequence (P14779 whole entry N320L/T412V/T437A): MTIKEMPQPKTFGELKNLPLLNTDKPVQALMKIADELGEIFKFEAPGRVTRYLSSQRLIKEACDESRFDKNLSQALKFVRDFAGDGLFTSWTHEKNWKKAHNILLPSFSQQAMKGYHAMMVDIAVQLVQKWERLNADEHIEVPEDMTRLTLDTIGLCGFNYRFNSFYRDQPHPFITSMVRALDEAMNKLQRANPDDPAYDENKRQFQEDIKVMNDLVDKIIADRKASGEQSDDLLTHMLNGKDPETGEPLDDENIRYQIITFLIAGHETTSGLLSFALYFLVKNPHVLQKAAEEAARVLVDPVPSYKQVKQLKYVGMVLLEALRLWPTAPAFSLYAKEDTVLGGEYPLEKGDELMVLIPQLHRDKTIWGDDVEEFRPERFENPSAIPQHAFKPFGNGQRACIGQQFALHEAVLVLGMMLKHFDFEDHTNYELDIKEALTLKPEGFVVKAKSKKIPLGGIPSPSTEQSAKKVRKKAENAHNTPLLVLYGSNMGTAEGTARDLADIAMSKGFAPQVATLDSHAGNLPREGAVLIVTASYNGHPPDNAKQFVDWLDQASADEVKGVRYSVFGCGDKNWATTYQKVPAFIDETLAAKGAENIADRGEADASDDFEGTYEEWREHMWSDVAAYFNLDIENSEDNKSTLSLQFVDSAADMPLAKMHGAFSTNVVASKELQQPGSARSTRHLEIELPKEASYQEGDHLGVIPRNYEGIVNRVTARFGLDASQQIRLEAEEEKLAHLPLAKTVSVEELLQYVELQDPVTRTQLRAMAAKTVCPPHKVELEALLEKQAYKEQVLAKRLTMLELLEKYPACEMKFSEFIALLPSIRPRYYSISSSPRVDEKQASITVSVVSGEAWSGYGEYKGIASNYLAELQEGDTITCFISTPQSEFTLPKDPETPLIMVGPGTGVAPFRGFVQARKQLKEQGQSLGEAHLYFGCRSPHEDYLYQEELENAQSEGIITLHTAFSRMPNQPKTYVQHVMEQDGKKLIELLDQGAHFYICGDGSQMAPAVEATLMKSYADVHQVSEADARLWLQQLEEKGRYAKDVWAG

P450 BM3 (CYP102A1) (Priestia megaterium, UniProt P14779), sequence (P14779 whole entry): as the sequence (P14779 whole entry N320L/T412V/T437A) above, with L320N, V412T, A437T counted along it

In the case of `CC1=CC(=O)CC(C)(C)C1` [α-isophorone], the results for the Kd on P450 BM3 (CYP102A1) [1] and on P450 BM3 (CYP102A1) [2] were 6.85 ± 0.079 mM and 6.263 ± 0.047 mM, respectively.

What is called Kd is the concentration at which binding is half-saturated. The low end stands for a tighter complex, the high end for a looser complex.
